# Laboratory results as given in publication PMC6149664, “Synthesis and In Vitro Antimycobacterial Activity of Novel N-Arylpiperazines Containing an Ethane-1,2-diyl Connecting Chain” (Molecules : A Journal of Synthetic Chemistry and Natural …, 2017).
# Read-outs that look alike come from different tables or passages of the source.
# Legend:
# M. kansasii CIT11/06 = assay: In vitro antimycobacterial MIC (IC90), alamarBlue 96-well assay in Middlebrook broth; assay type: cell-based, Mycobacterium kansasii; settings: 7 days incubation, read-out: MIC, MK CIT11/06
# [1] = tested on: M. avium CNCTC My 330/80 (identical with ATCC 25291); assay: In vitro antimycobacterial MIC, dilution-micromethod in Šula semisynthetic medium; assay type: cell-based; settings: Mycobacterium avium
# [2] = tested on: M. kansasii 6 509/96 clinical isolate; assay: as above; assay type: cell-based; settings: Mycobacterium kansasii, read-out: MIC, MK 6 509/96
# [3] = tested on: M. tuberculosis CNCTC My 331/88 (identical with H37Rv and ATCC 2794); assay: as above; assay type: cell-based; settings: Mycobacterium tuberculosis
# [4] = tested on: M. kansasii CNCTC My 235/80 (identical with ATCC 12478); assay: as above; assay type: cell-based, Mycobacterium kansasii
# [5] = tested on: M. avium subsp. paratuberculosis CIT03; assay: microbe, parasite or virus in culture; assay type: cell-based; settings: Mycobacterium avium, 168 h, read-out: MIC, MAP CIT03
# [6] = tested on: M. avium intracellulare ATCC 13950; assay: In vitro antimycobacterial MIC (IC90), alamarBlue 96-well assay in Middlebrook broth; assay type: cell-based, Mycobacterium avium intracellulare; settings: Mycobacterium avium, ATCC13950, 168 h, 7 days incubation, read-out: MIC, MAI ATCC 13950
# [7] = tested on: M. avium hominissuis CIT10/08; assay: as above; assay type: cell-based, Mycobacterium avium hominissuis; settings: Mycobacterium avium, 168 h, 7 days incubation, read-out: MIC, MAH CIT10/08
# [8] = Mycobacterium kansasii, CIT11/06, 168 h
# [9] = ATCC25291, 336 h, 14 d cultivation, read-out: MIC, MA My 330/88
# [10] = ATCC25291, 504 h, 21 d cultivation, read-out: MIC, MA My 330/88
# [11] = 336 h, 14 d cultivation, read-out: MIC, MT My 331/88
# [12] = 504 h, 21 d cultivation, read-out: MIC, MT My 331/88
# [13] = Mycobacterium kansasii, ATCC12478, 168 h, 7 d cultivation, read-out: MIC, MK My 235/80
# [14] = Mycobacterium kansasii, ATCC12478, 336 h, 14 d cultivation, read-out: MIC, MK My 235/80
# [15] = Mycobacterium kansasii, ATCC12478, 336 h, both M. kansasii strains, depending on strain and number of days of incubation (standards: 14-d/21-d), read-out: MIC against M. kansasii My 235/80 and M. kansasii 6 509/96
# [16] = Mycobacterium kansasii, ATCC12478, 504 h, 21 d cultivation, read-out: MIC, MK My 235/80
# [17] = both M. kansasii strains, depending on strain and number of days of incubation (standards: 14-d/21-d), read-out: MIC against M. kansasii My 235/80 and M. kansasii 6 509/96
SMILES,MIC (M. kansasii CIT11/06) [µM],MIC (M. kansasii CIT11/06; [8]) [µM],"MIC [1, 9] [µM]","MIC [1, 10] [µM]","MIC ([2]; 168 h, 7 d cultivation) [µM]","MIC ([2]; 336 h, 14 d cultivation) [µM]","MIC ([2]; 504 h, 21 d cultivation) [µM]","MIC [3, 11] [µM]","MIC [3, 12] [µM]","MIC [4, 13] [µM]","MIC [4, 14] [µM]","MIC [4, 15] [µM]","MIC [4, 16] [µM]","MIC [4, 17] [µM]",MIC [5] [µM],MIC [6] [µM],MIC [7] [µM],"MIC ([1]; ATCC25291, 336 h, 14-d/21-d, read-out: MIC against M. avium CNCTC My 330/80) [µM]","MIC ([3]; 336 h, 14-d/21-d cultivation, read-out: MIC against M. tuberculosis CNCTC My 331/88) [µM]"
"O=C(O)c1cn(C2CC2)c2cc(N3CCNCC3)c(F)cc2c1=O [CPX, ciprofloxacin, reference compound]",>91,> 91,–,–,–,–,–,–,–,–,–,–,–,–,–,–,–,–,–
"CC1COc2c(N3CCN(C)CC3)c(F)cc3c(=O)c(C(=O)O)cn1c23 (stereo not shown) [OFLX, ofloxacin, reference compound]",–,–,32,62.5,0.5,0.5,1,1,2,0.5,1,0.5,1,1,–,–,–,–,–
"NC(=O)c1cnccn1 [PZA, pyrazinamide, reference compound]",–,> 2030,–,–,–,–,–,–,–,–,–,–,–,–,> 2030,> 2030,487,–,–
"CC[C@@H](CO)NCCN[C@@H](CC)CO [EMB, ethambutol, reference compound]",–,–,16,16,1,2,2,1,2,1,2,1,2,2,–,–,–,16,–
"NNC(=O)c1ccncc1 [INH, isonicotinic acid hydrazide, reference compound]",–,> 1820,> 250,> 250,4,8,8,0.5,0.5,> 250,> 250,–,> 250,–,> 1820,> 1820,> 1820,–,0.5
